Source: US20160213742A1, “COMPOSITIONS AND METHODS FOR THE TREATMENT OF FUNGAL INFECTIONS” (priority 2013, published 2016)
Converted amounts (≈) assume the structure as drawn. Where two headings read alike, the source gives them in different places.

Key:
Type in all cases: cell-based
[1] = test system: A. fumigatus MX 5944; assay: MEC assay (Example 31); settings: RPMI pH 7.0, 35° C., 24-48 hr
Procedure, shortened: (§1)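 RPMI pH 7.0 (CLSI), 2-fold serial dilutions, 1.25% DMSO final (investigational). Inoc: Candida 0.5 McF 1:100; Aspergillus ~0.2-2.5×10^4 CFU/mL. 35° C., ~24-48 hr. MIC = no visible growth; MEC = small compact hyphae vs growth control.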

[2] = test system: A. fumigatus MYA-3626; assay: MEC assay (Example 31); settings: RPMI pH 7.0, 35° C., 24-48 hr
Procedure, shortened: as §1

[3] = test system: A. flavus MX 5948; assay: MEC assay (Example 31); settings: RPMI pH 7.0, 35° C., 24-48 hr
Procedure, shortened: as §1

[4] = test system: A. fumigatus ATCC 13073; assay: MEC assay (Example 31); settings: RPMI pH 7.0, 35° C., 24-48 hr
Procedure, shortened: as §1

[5] = test system: A. fumigatus MYA-4609; assay: MEC assay (Example 31); settings: RPMI pH 7.0, 35° C., 24-48 hr
Procedure, shortened: as §1

[6] = test system: C. glabrata ATCC 90030; settings: C. glabrata ATCC 90030; read at 50% growth inhibition for echinocandins (24 h), 100% for amphotericin B (48 h)
Method: (§2) MIC and MEC assays were run as described in Example 31 with the following exceptions. Starting solutions of all antifungal agents were prepared in 100% DMSO. Stock concentrations were made at 50× the highest final assay concentration and serially diluted 2-fold, 16 times in a 96-well PCR plate (VWR 83007-374). Candida and Aspergillus suspensions from Sabouraud dextrose agar plate cultures were prepared in 0.85% saline at 0.5 McFarland standard (˜0.1 OD530 nm). Candida suspensions were diluted 1:500 in RPMI (MP Biomedicals, cat no. 1060124; buffered with MOPS and adjusted with NaOH to pH 7.0) to a concentration of ˜0.5-2.5×10^3 CFU/mL and Aspergillus suspensions were diluted 1:50 in RPMI to 0.4-5×10^4 CFU/mL final concentration. 98 μL of each cell suspension in RPMI were added to test wells in a 96-well assay plate (Costar cat. no. 3370). A Beckman Multimek 96 liquid handling robot was used to dispense 2 μL of each 50× stock compound into the plate containing 98 μL of each strain in RPMI (2% final solvent concentration). Plates were shaken then incubated at 35° C. for 24-48 h prior to reading. MIC values were read visually at 50% growth inhibition for echinocandins (24 h) and at 100% growth inhibition for amphotericin B (48 h). MEC values (24 h) were read with the aid of a microscope at the lowest echinocandin concentration where rounded/compact hyphal morphology was observed.

[7] = test system: C. albicans ATCC 90028; settings: C. albicans ATCC 90028; read at 50% growth inhibition for echinocandins (24 h), 100% for amphotericin B (48 h)
Method: as §2

[8] = test system: C. krusei ATCC 14243; settings: C. krusei ATCC 14243; read at 50% growth inhibition for echinocandins (24 h), 100% for amphotericin B (48 h)
Method: as §2

[9] = test system: C. parapsilosis ATCC 22019; settings: C. parapsilosis ATCC 22019; read at 50% growth inhibition for echinocandins (24 h), 100% for amphotericin B (48 h)
Method: as §2

[10] = test system: C. tropicalis ATCC 750; settings: C. tropicalis ATCC 750; read at 50% growth inhibition for echinocandins (24 h), 100% for amphotericin B (48 h)
Method: as §2

[11] = test system: C. glabrata ATCC 90030; assay: microbe, parasite or virus in culture; settings: C. glabrata ATCC 90030; RPMI pH 7.0, 35° C., 24-48 hr
Procedure, shortened: as §1

[12] = test system: C. albicans ATCC 90028; assay: microbe, parasite or virus in culture; settings: C. albicans ATCC 90028; RPMI pH 7.0, 35° C., 24-48 hr
Procedure, shortened: as §1

[13] = test system: C. krusei ATCC 14243; assay: microbe, parasite or virus in culture; settings: C. krusei ATCC 14243; RPMI pH 7.0, 35° C., 24-48 hr
Procedure, shortened: as §1

[14] = test system: C. parapsilosis ATCC 22019; assay: microbe, parasite or virus in culture; settings: C. parapsilosis ATCC 22019; RPMI pH 7.0, 35° C., 24-48 hr
Procedure, shortened: as §1

[15] = test system: A. fumigatus MYA-3626; assay: MEC assay (Example 32); settings: MEC values (24 h), rounded/compact hyphal morphology
Method: as §2

[16] = test system: A. flavus ATCC MYA-3631; assay: MEC assay (Example 32); settings: MEC values (24 h), rounded/compact hyphal morphology
Method: as §2

[17] = test system: A. niger ATCC 16404; assay: MEC assay (Example 32); settings: MEC values (24 h), rounded/compact hyphal morphology
Method: as §2

[18] = test system: A. fumigatus ATCC 13073; assay: MEC assay (Example 32); settings: MEC values (24 h), rounded/compact hyphal morphology
Method: as §2

[19] = test system: A. fumigatus MYA-4609; assay: MEC assay (Example 32); settings: MEC values (24 h), rounded/compact hyphal morphology
Method: as §2

What does the source list for `C[C@@H]1[C@H](O)[C@@H](C)/C=C/C=C/C=C/C=C/C=C/C=C/C=C/[C@H](O[C@@H]2O[C@H](C)[C@@H](O)[C@H](N)[C@@H]2O)C[C@@H]2O[C@](O)(C[C@@H](O)C[C@@H](O)[C@H](O)CC[C@@H](O)C[C@@H](O)CC(=O)O[C@H]1C)C[C@H](O)[C@H]2C(=O)O` [amphotericin B, reference compound]?
MEC [1]: 0.5-2^ μg/mL; MEC [2]: 0.5 to 2 µg/mL; MEC [3]: 0.5 to 2 µg/mL; MEC [4]: 0.5 to 4 µg/mL; MEC [5]: 0.5 to 4 µg/mL; MIC [6]: 1 µg/mL (≈ 1.08 µM); MIC [7]: 0.5 µg/mL (≈ 0.541 µM); MIC [8]: 1 µg/mL (≈ 1.08 µM); MIC [9]: 1 µg/mL (≈ 1.08 µM); MIC [10]: 1 µg/mL (≈ 1.08 µM); MIC [11]: 0.25 to 1 µg/mL; MIC [12]: 0.12 to 1 µg/mL; MIC [13]: 0.25-2 ^ μg/mL; MIC [14]: 0.5 to 2 µg/mL; MEC [15]: 0.25 µg/mL; MEC [16]: 1 µg/mL; MEC [17]: 0.5 µg/mL; MEC [18]: 0.25 µg/mL; MEC [19]: 1 µg/mL
